ChEMBL document CHEMBL5233269, “Anticancer potential of spirocompounds in medicinal chemistry: A pentennial expedition” (Eur J Med Chem, 2021)
Converted amounts (≈) assume the structure as drawn.

Assays:
B16-F10 = assay: Anticancer activity against mouse B16-F10 cells; format: functional, cell-based
HeLa [1] = assay: Anticancer activity against human HeLa cells assessed as inhibition of cell proliferation; format: functional, cell-based
[2] = Anticancer activity against human Panel (56 tumour cell lines) at 10 uM relative to control; format: functional
PC-3 [3] = assay: Growth inhibition of human PC-3 cells assessed as reduction in cell viability by SRB assay; format: functional
COLO 205 = assay: Growth inhibition of human COLO 205 cells assessed as reduction in cell viability by SRB assay; format: functional
MCF7 [4] = assay: Growth inhibition of human MCF7 cells assessed as reduction in cell viability by SRB assay; format: functional
A-375 [5] = assay: Cytotoxicity against human A-375 cells at 10 ug/ml incubated for 24 hrs by MTT assay; format: functional; conditions: dose 10 µg/ml
A-375 [6] = assay: Cytotoxicity against human A-375 cells at 100 ug/ml incubated for 24 hrs by MTT assay; format: functional; conditions: dose 100 µg/ml
A549 = assay: Antiproliferative activity against human A549 cells incubated for 72 hrs by MTT assay; format: functional, cell-based; conditions: A549, 72 h
MCF7 [7] = assay: Antiproliferative activity against human MCF7 cells incubated for 72 hrs by MTT assay; format: functional, cell-based; conditions: MCF7, 72 h
Caco-2 = assay: Antiproliferative activity against human Caco-2 cells incubated for 72 hrs by MTT assay; format: functional, cell-based; conditions: Caco-2, 72 h
HCT-116 = assay: Antiproliferative activity against human HCT-116 cells incubated for 72 hrs by MTT assay; format: functional, cell-based; conditions: HCT-116, 72 h
MDA-MB-231 [8] = assay: Antiproliferative activity against human MDA-MB-231 cells incubated for 72 hrs by MTT assay; format: functional, cell-based; conditions: MDA-MB-231, 72 h
CCRF-CEM = assay: Antiproliferative activity against human CEM cells incubated for 72 hrs by MTT assay; format: functional, cell-based
Jurkat = assay: Antiproliferative activity against human Jurkat cells incubated for 72 hrs by MTT assay; format: functional, cell-based
HeLa [9] = assay: Antiproliferative activity against human HeLa cells incubated for 72 hrs by MTT assay; format: functional, cell-based
K562 = assay: Antiproliferative activity against human K562 cells measured upto 72 hrs by microscopy based analysis; format: functional, cell-based; conditions: K562, 72 h
U-937 = assay: Antiproliferative activity against human U-937 cells measured upto 72 hrs by microscopy based analysis; format: functional, cell-based; conditions: U-937, 72 h
MDA-MB-231 [10] = assay: Antiproliferative activity against human MDA-MB-231 cells assessed as inhibition of cell viability by MTT assay; format: functional, cell-based
MCF7 [11] = assay: Antiproliferative activity against human MCF7 cells by MTT assay; format: functional, cell-based
LNCaP = assay: Anticancer activity against human LNCaP cells at 100 uM relative to control; format: functional
PC-3 [12] = assay: Anticancer activity against human PC-3 cells at 100 uM relative to control; format: functional
HeLa [13] = assay: Cytotoxicity against human HeLa cells; format: functional, cell-based
[14] = Cytotoxicity against green monkey Vero cells; format: toxicity, cell-based; conditions: green monkey (Chlorocebus sabaeus)
HT-29 [15] = assay: Antiproliferative activity against human HT-29 cells incubated for 2 days by MTT assay; format: functional, cell-based; conditions: HT-29, 48 h
T47D = assay: Antiproliferative activity against human T47D cells incubated for 2 days by MTT assay; format: functional, cell-based; conditions: 48 h
HepG2 = assay: Antiproliferative activity against human HepG2 cells incubated for 2 days by MTT assay; format: functional, cell-based; conditions: HepG2, 48 h
HFF = assay: Antiproliferative activity against human HFF cells incubated for 2 days by MTT assay; format: functional, cell-based; conditions: 48 h
MCF7 [16] = assay: Antiproliferative activity against human MCF7 cells incubated for 2 days by MTT assay; format: functional, cell-based; conditions: MCF7, 48 h
HT-29 [17] = assay: Antiproliferative activity against human HT-29 cells assessed as inhibition of cell growth; format: functional, cell-based
MCF7 [18] = assay: Antiproliferative activity against human MCF7 cells assessed as inhibition of cell growth; format: functional, cell-based
A2780 = assay: Antiproliferative activity against human A2780 cells assessed as inhibition of cell growth; format: functional, cell-based
[19] = target: Tumour suppressor p53/oncoprotein Mdm2 (Homo sapiens) (UniProt P04637+Q00987); assay: Inhibition of MDM2/p53 (unknown origin) interaction at 10 uM relative to control; format: protein assay
MCF7 [20] = assay: Antiproliferative activity against human MCF7 cells assessed as cell growth inhibition; format: functional, cell-based
MDA-MB-231 [21] = assay: Antiproliferative activity against human MDA-MB-231 cells assessed as cell growth inhibition; format: functional, cell-based

Chain of Tumour suppressor p53/oncoprotein Mdm2 (Homo sapiens) (P04637 whole entry, looked up): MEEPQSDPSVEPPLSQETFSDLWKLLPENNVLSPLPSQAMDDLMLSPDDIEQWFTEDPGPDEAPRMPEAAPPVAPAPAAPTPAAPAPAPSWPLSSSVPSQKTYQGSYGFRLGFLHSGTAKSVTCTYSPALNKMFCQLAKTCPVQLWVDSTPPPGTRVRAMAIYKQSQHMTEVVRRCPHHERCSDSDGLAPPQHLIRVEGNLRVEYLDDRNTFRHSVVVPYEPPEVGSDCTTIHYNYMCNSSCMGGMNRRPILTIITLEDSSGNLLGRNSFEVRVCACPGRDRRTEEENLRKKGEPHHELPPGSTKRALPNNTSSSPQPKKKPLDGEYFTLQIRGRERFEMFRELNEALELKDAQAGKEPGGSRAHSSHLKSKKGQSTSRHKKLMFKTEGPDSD
Chain of Tumour suppressor p53/oncoprotein Mdm2 (Homo sapiens) (Q00987 whole entry, looked up): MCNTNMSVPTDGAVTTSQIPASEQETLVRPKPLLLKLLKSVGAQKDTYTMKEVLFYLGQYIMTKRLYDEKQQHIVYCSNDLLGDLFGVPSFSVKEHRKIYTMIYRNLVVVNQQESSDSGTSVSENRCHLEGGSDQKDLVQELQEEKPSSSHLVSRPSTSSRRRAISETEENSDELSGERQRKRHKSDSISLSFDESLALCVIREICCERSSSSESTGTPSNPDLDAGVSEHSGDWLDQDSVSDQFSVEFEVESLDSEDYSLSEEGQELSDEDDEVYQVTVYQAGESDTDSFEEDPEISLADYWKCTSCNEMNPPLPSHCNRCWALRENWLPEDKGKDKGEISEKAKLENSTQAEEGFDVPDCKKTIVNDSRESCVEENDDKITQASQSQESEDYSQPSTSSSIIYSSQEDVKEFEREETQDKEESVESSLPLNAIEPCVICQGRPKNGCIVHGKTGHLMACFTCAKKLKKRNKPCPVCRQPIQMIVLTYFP

**Q.** Which IC50 (B16-F10) does the source give for `Cc1cc(Cl)ccc1[C@@H]1N(C)C2(CC13C(=O)N(C)C(=O)N(C)C3=O)C(=O)c1ccccc1C2=O` here?
**A.** 8.4 µM

**Q.** What about the IC50 (HeLa [1]) of the same molecule?
**A.** 434 µM

**Q.** For `O=C1NC2(CCNCC2)Nc2ccccc21`, which inhibition at 10 µM [2] is on record?
**A.** 100%

**Q.** What does the source list for `CCOP1(=O)N(CC)N=NC12SC1=CCCCC1=C2C#N` (centres undefined)?
**A.** GI50 (PC-3 [3]): 9.97 µM; GI50 (COLO 205): 17.8 µM; GI50 (MCF7 [4]): 5.03 µM

**Q.** For `CN1CC(n2ccc3ccccc32)C(C#N)(C#N)C12C(=O)N(Cc1ccccc1)c1ccccc12` (centres undefined), which Activity (A-375 [5]) is on record?
**A.** 97.29%

**Q.** What about the Activity (A-375 [6]) of the same molecule?
**A.** 95.86%

**Q.** With `CON1c2ccccc2[C@@]2(CN=C(Nc3cc(C(F)(F)F)cc(C(F)(F)F)c3)S2)[C@H]1Nc1cc(C(F)(F)F)cc(C(F)(F)F)c1` as the molecule, how does the IC50 (A549) read?
**A.** 2.5 µM

**Q.** What about the IC50 (MCF7 [7]) of the same molecule?
**A.** 2 µM

**Q.** What about the IC50 (Caco-2) of the same molecule?
**A.** 19.7 µM

**Q.** What about the IC50 (HCT-116) of the same molecule?
**A.** 43.9 µM

**Q.** And the IC50 (MDA-MB-231 [8])?
**A.** 3.5 µM

**Q.** And the IC50 (CCRF-CEM)?
**A.** 1 µM

**Q.** What about the IC50 (Jurkat) of the same molecule?
**A.** 2 µM

**Q.** And the IC50 (HeLa [9])?
**A.** 2.5 µM

**Q.** For `CON1c2ccccc2[C@@]2(CN=C(Nc3cc(C(F)(F)F)cc(C(F)(F)F)c3)S2)[C@@H]1Nc1cc(C(F)(F)F)cc(C(F)(F)F)c1`, which IC50 (A549) is on record?
**A.** 2 µM

**Q.** What about the IC50 (MCF7 [7]) of the same molecule?
**A.** 2 µM

**Q.** What about the IC50 (Caco-2) of the same molecule?
**A.** 47 µM

**Q.** What about the IC50 (HCT-116) of the same molecule?
**A.** 65.1 µM

**Q.** And the IC50 (MDA-MB-231 [8])?
**A.** 4 µM

**Q.** What about the IC50 (CCRF-CEM) of the same molecule?
**A.** 5 µM

**Q.** What about the IC50 (Jurkat) of the same molecule?
**A.** 2 µM

**Q.** And the IC50 (HeLa [9])?
**A.** 3 µM

**Q.** For `CC1=CC(=O)C2(C(=O)O1)C(c1ccc(C(C)(C)C)cc1)CC(=O)CC2c1ccc(C(C)(C)C)cc1` (centres undefined), which IC50 (K562) is on record?
**A.** 58.6 µM

**Q.** And the IC50 (U-937)?
**A.** 43.7 µM

**Q.** Which IC50 (MDA-MB-231 [10]) does the source give for `Clc1cccc(Cl)c1C1=NO[C@@]2(CCCCO2)[C@H]1Br` here?
**A.** 43.1 µM

**Q.** What about the IC50 (MCF7 [11]) of the same molecule?
**A.** 52.4 µM

**Q.** For `O=C(/C=C/c1ccc(F)cc1)c1ccc(OP2(Oc3ccc(C(=O)/C=C/c4ccc(F)cc4)cc3)=NP3(=NP4(=N2)Oc2ccccc2-c2ccccc2O4)Oc2ccccc2-c2ccccc2O3)cc1`, which Activity (LNCaP) is on record?
**A.** 57.66%

**Q.** And the Activity (PC-3 [12])?
**A.** 35.93%

**Q.** Which Activity (A-375 [5]) does the source give for `CCN1C(=O)C2(c3ccccc31)N(C)CC(n1ccc3ccccc31)C2(C#N)C#N` (centres undefined) here?
**A.** 95.86%

**Q.** What about the Activity (A-375 [6]) of the same molecule?
**A.** 85.69%

**Q.** For `COP1(=O)N(C)N=NC12SC1=CCCCC1=C2C#N` (centres undefined), which GI50 (PC-3 [3]) is on record?
**A.** 12.4 µM

**Q.** And the GI50 (COLO 205)?
**A.** 18.4 µM

**Q.** And the GI50 (MCF7 [4])?
**A.** 6.35 µM

**Q.** For `O=C(c1ccccn1)[C@@H]1[C@@H](c2ccc(Cl)cc2Cl)[C@H](c2ccccc2)NC12C(=O)Nc1ccccc12` (some centres undefined), which IC50 (HeLa [13]) is on record?
**A.** 16 µg/mL (≈ 31.1 µM)

**Q.** What about the IC50 [14] of the same molecule?
**A.** 17 µg/mL (≈ 33 µM)

**Q.** With `Cc1ccccc1/C=C/C(=O)c1ccc(OP2(Oc3ccc(C(=O)/C=C/c4ccccc4)cc3)=NP3(=NP4(=N2)Oc2ccccc2-c2ccccc2O4)Oc2ccccc2-c2ccccc2O3)cc1` (centres undefined) as the molecule, how does the Activity (LNCaP) read?
**A.** 69.04%

**Q.** And the Activity (PC-3 [12])?
**A.** 42.36%

**Q.** What does the source list for `COc1ccc(C2=NOC3(Cc4ccccc4C3=O)C2c2ccc(S(C)(=O)=O)cc2)cc1OC` (centres undefined)?
**A.** IC50 (HT-29 [15]): 94.6 µM; IC50 (T47D): 21.4 µM; IC50 (HepG2): 0.059 µM; IC50 (HFF): 33.9 µM; IC50 (MCF7 [16]): 53.7 µM

**Q.** What does the source list for `COc1cc(C2=NOC3(Cc4ccccc4C3=O)C2c2ccc(S(C)(=O)=O)cc2)cc(OC)c1OC` (centres undefined)?
**A.** IC50 (HT-29 [15]): 69.3 µM; IC50 (T47D): 0.07 µM; IC50 (HepG2): 0.086 µM; IC50 (HFF): 2.32 µM; IC50 (MCF7 [16]): 24.2 µM

**Q.** With `O=C1CC2(CCN(S(=O)(=O)c3cccc4ccccc34)CC2)Oc2ccccc21` as the molecule, how does the IC50 (HT-29 [17]) read?
**A.** 0.69 µM

**Q.** And the IC50 (MCF7 [18])?
**A.** 6.02 µM

**Q.** And the IC50 (A2780)?
**A.** 0.316 µM

**Q.** Which results are given for `CN1C(=O)N(C)C(=O)C2(CC3(C(=O)c4ccccc4C3=O)N(C)[C@H]2c2ccccc2)C1=O`?
**A.** IC50 (B16-F10): 3.5 µM; IC50 (HeLa [1]): 4.3 µM

**Q.** For `CCOC(=O)C1CN(C(=O)N2CCCCC2)C2(C(=O)Nc3ccccc32)C1c1ccccc1O` (centres undefined), which inhibition [19] is on record?
**A.** 57.7%

**Q.** Which IC50 (MCF7 [20]) does the source give for `O=C1N(c2ccccc2)C(=O)C2(CC(c3ccccc3O)=NO2)N1C1CCCCC1` (centres undefined) here?
**A.** 42.3 µM

**Q.** What about the IC50 (MDA-MB-231 [21]) of the same molecule?
**A.** 67.9 µM

**Q.** For `O=C(/C=C/c1cccc(F)c1)c1ccc(OP2(Oc3ccc(C(=O)/C=C/c4cccc(F)c4)cc3)=NP3(=NP4(=N2)Oc2ccccc2-c2ccccc2O4)Oc2ccccc2-c2ccccc2O3)cc1`, which Activity (LNCaP) is on record?
**A.** 63.78%

**Q.** What about the Activity (PC-3 [12]) of the same molecule?
**A.** 43.71%
